Laboratory results reported in patent US20030061633A1, “Modified dhps genes” (priority 1999, published 2003).

Columns and labels:
DHPS = DHPS enzyme activity in transgenic tubers (O-aminobenzaldehyde method); type: biochemical; details: transformed (mutant DHPS) versus control potato tubers
Description: Microtubers or mature tubers were homogenised with mortar and pestle in an equal volume of cold 100 mM Tris-HCl pH 7.5 containing 2 mM EDTA, 1.4% sodium ascorbate, 1 mM phenylmethylsulphonilfluoride and 0.5 Tg/ml leupeptin. Following 5 min. centrifugation (16,000 g at 4° C.) the supernatant is collected. DHPS activity was measured using the O-aminobenzaldehyde (O-ABA) method of Yugari and Gilvarg (Yugari, Y. and Gilvarg, C. (1965) J. Biol. Chem. 240: 4710-4716).

E. coli DHPS = E. coli DHPS (Escherichia coli, UniProt P0A6L2); details: read-out: I50 of E. coli DHPS for lysine; cited from earlier work
Chain of E. coli DHPS (P0A6L2 whole entry): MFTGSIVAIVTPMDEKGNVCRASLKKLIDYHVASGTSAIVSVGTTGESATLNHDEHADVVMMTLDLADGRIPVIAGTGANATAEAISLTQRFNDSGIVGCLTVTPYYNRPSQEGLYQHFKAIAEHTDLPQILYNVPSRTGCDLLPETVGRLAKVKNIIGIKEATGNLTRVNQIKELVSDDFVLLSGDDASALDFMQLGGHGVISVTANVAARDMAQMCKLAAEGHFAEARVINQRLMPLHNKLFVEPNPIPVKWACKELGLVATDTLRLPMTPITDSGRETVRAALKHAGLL

[1] = tested on: dihydrodipicolinate synthase (DHPS); details: cited from earlier work

SMILES | AEC sensitivity of DHPS activity (DHPS) | IC50 (E. coli DHPS) | sensitivity of plant DHPS to lysine inhibition relative to E. coli DHPS ([1]; more sensitive than E. coli DHPS) | sensitivity of plant DHPS to lysine inhibition relative to plant lysine-sensitive AKs ([1]; more sensitive than plant lysine-sensitive AKs)
NCCSC[C@H](N)C(=O)O [AEC, S-(2-aminoethyl)-L-cysteine] | reduced |  |  | 
NCCCC[C@H](N)C(=O)O [lysine] |  | ~1000 µM | about 100 fold | about 10 fold
